Source: ChEMBL document CHEMBL1141785, “Cimipronidine, a cyclic guanidine alkaloid from Cimicifuga racemosa” (J Nat Prod, 2005)
Calls of active or inactive are those of the source. No cut-off for these calls is given here.

Molecular target: 5-hydroxytryptamine receptor 7 (Homo sapiens) (UniProt P34969)
Test: Binding affinity to 5HT7 receptor

Chain of 5-hydroxytryptamine receptor 7 (Homo sapiens) (P34969 whole entry): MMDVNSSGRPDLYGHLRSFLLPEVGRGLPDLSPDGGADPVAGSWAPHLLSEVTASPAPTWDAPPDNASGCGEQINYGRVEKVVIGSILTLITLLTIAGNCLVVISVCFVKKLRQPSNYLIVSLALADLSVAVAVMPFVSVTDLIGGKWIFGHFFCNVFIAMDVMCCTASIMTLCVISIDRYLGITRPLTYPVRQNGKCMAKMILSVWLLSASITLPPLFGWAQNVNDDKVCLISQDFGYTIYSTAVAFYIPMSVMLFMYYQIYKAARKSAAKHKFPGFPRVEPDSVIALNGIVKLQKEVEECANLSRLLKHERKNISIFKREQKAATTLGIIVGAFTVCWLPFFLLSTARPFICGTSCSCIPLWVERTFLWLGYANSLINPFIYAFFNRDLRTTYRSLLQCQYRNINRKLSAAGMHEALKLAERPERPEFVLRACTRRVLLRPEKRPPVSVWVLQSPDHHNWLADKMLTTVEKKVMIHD

Structure (SMILES)	Activity
N=C(N)N1CCCC1CC(=O)O (configuration not stated)	Active
O=C(/C=C/c1ccc(O)c(O)c1)O[C@H](C(=O)O)[C@](O)(Cc1ccc(O)c(O)c1)C(=O)O	Active
